Results from US20260325605A1, “INHIBITORS” (Zealand Pharma A/S, priority 2022, published 2026).

How the values were obtained:
Kv1.1 = target: T1, Kv1.1 (Homo sapiens, UniProt Q09470); experiment: Patch clamp assay (QPatch), Kv1.1; assay type: cell-based
T1 construct: expressed in transfected cells
Description: (§2) Selectivity of Kv1.3 inhibitor peptides for Kv1.3 over other potassium ion channels (Kv1.1, Kv1.2 and Kv1.6) was determined using patch clamp assay.
(§3) Chinese Hamster Ovary (CHO) cell lines stably expressing exogenous human α-subunits of each potassium ion channel were grown and passaged under standard culture conditions.
(§4) The automated, chip-based planar patch clamp device QPatch® was used to quantitate the ionic currents. All recordings were made in the conventional whole-cell configuration after establishment of gigaohm seals. […] During experiments 0.1% (v/v) BSA was included as a vehicle in all external recording solutions. Currents were elicited from a holding potential of −80 mV using a voltage protocol, which shifted the voltage to 30 mV for 500 ms every 15 s.
(§5) Concentration-response relationships were established by cumulatively applying seven escalating concentrations of test sample to an individual cell with a recording period of 2 min per compound application.
(§6) The efficacy was determined as the mean charge for the last three sweeps at the end of each concentration application period from the cursor positions. The percent inhibition for each test dose application period was calculated as the reduction in mean cursor value (charge) relative to the cursor value measured at the end of the vehicle period and used to calculate the IC50 from the concentration response curve.

[1] = tested on: KLH-induced DTH ear swelling in rats; experiment: Example 11: Minimal effective dose in KLH-induced DTH model; assay type: in vivo, rat (Lewis)
Description: (§1) Healthy male Lewis rats aged 8-9 weeks were immunized on day 0 with 200 μL keyhole limpet hemocyanin (KLH) (from Sigma, cat.no. H7017) (4 mg/mL) emulsified in complete Freund's adjuvant (CFA) (Difco, cat.no. 263810) subcutaneously (SC) at the base of the tail.
To elicit a KLH-specific T cell-mediated local inflammation, rats were challenged intradermally at indicated timepoints (days 7, 9, 11 or 13 post-immunisation) with 40 μL KLH/NaCl 0.9% (2 mg/mL) in the left ear. Ear edemas were measured after 24-48 hrs and the right ear that was left untreated served as control. A schematic overview of the protocol is depicted in FIG. 1. […]
This study was conducted as described in example 8 with the difference that the rats were only challenged intradermally at days 7 or 11 post-immunisation (i.e. day 1 and day 5 after treatment) with 40 μL KLH/NaCl 0.9% (2 mg/mL) in the left ear. A schematic overview of the protocol is depicted in FIG. 5.
The doses of Kv1.3 inhibitor treatment able to reduce the DTH ear swelling response was investigated by comparing the response in rats (n=8/group) treated with vehicle to that of rats treated with different doses of peptide 100. Vehicle or peptide 100 dissolved in vehicle was administered SC (2 mL/kg) on day 6. The test dose of Kv1.3 inhibitor was 1, 3, 10, 30 or 100 nmol/kg. Test vehicle was 10 mM phosphate, 0.8% w/v NaCl, 0.05% w/v polysorbate20, pH 6.
As readout of efficacy, the thickness of the induced ear 24 hrs and 48 hrs after respective ear challenge was measured and compared to vehicle control. Ear thickness 24 hrs after challenge is shown in Table 15 and FIG. 8 and ear thickness 48 hrs after challenge is shown in Table 16 and FIG. 9.

Kv1.3 = target: T2, Kv1.3 (Homo sapiens, UniProt P22001); experiment: Patch clamp assay (QPatch), Kv1.3; assay type: cell-based; settings: CHO cells stably expressing human Kv1.3, read-out: Potency IC50, Kv1.3
T2 construct: expressed in transfected cells
T2 sequence (P22001 whole entry): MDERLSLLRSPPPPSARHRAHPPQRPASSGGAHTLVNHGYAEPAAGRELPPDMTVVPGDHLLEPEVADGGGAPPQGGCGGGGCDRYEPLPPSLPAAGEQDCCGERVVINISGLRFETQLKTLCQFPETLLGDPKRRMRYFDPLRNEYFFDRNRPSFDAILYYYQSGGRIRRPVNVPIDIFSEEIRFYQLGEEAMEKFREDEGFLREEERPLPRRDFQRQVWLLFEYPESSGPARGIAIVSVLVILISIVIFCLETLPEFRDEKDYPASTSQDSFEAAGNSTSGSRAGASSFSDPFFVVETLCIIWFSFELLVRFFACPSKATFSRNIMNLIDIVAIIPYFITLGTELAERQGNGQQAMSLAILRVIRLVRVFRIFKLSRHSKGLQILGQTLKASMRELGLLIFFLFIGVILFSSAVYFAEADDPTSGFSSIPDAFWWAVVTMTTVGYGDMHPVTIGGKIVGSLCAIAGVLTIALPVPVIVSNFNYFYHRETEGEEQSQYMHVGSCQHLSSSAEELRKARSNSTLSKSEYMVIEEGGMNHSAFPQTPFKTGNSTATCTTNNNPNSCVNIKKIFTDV
Description: as §2, §3, §4, §5, §6

[2] = tested on: KLH-induced DTH ear swelling in rats; experiment: Example 8: Long-lasting effect in KLH-induced delayed type hypersensitivity (DTH) model; assay type: in vivo, rat (Lewis)
Description: The animal care facility employed is accredited by AAALAC. Female Lewis rats, weighing 180±20 g at delivery were used for this study. Following arrival in the animal facility, all animals were subjected to a general health evaluation. An acclimation period of 1 day was allowed before the beginning of the study.
The animal room was maintained at a controlled temperature of 20-24° C. and a relative humidity of 30-70%. A controlled lighting system assured 12 hours light, 12 hours dark per day to the animals. Adequate ventilation of 15 air changes per hour was maintained.
This study was performed to investigate the length of effect of a Kv1.3 inhibitor (peptide 100) on ear inflammation in the KLH-induced DTH model in rats.
as §1
To elicit a KLH-specific T cell-mediated local inflammation, rats were challenged intradermally at indicated timepoints (days 7, 9, 11 or 13 post-immunisation) with 40 μL KLH/NaCl 0.9% (2 mg/mL) in the left ear. Ear edemas were measured after 24-48 hrs and the right ear that was left untreated served as control. A schematic overview of the protocol is depicted in FIG. 1.
The ability of Kv1.3 inhibitor treatment to reduce the DTH ear swelling response was investigated by comparing the response in rats (n=8/group) treated with vehicle to that of rats treated with peptide 100. Vehicle or peptide 100 dissolved in vehicle was administered SC (2 mL/kg) on day 6. The test dose of Kv1.3 inhibitor was 300 nmol/kg. Test vehicle was 10 mM phosphate, 0.8% w/v NaCl, 0.05% w/v polysorbate20, pH 6. Cyclosporine A (CsA) was included as positive study control.
As readout of efficacy, the thickness of the induced ear 24 hrs and 48 hrs after respective ear challenge was measured and compared to vehicle control. Ear thickness 24 hrs after challenge is shown in Table 10 and FIG. 2 and ear thickness 48 hrs after challenge is shown in Table 11 and FIG. 3.

Kv1.6 = target: T3, Kv1.6 (Homo sapiens, UniProt P17658); experiment: Patch clamp assay (QPatch), Kv1.6; assay type: cell-based
T3 construct: expressed in transfected cells
T3 sequence (P17658 whole entry): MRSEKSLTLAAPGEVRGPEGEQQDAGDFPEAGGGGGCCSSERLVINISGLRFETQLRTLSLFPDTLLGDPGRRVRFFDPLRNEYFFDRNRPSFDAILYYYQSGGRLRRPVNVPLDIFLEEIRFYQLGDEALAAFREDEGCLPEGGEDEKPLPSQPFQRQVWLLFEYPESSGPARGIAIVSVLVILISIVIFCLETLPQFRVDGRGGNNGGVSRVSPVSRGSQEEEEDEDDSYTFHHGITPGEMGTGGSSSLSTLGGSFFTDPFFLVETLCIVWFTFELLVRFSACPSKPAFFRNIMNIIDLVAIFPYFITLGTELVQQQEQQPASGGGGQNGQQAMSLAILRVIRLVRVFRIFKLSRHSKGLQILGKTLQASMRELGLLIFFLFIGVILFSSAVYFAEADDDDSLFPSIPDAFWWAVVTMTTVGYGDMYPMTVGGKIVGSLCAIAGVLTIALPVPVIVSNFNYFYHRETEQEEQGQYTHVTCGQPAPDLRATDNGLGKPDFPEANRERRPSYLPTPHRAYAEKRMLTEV
Description: as §2, §3, §4, §5, §6

T1 sequence (Q09470 whole entry): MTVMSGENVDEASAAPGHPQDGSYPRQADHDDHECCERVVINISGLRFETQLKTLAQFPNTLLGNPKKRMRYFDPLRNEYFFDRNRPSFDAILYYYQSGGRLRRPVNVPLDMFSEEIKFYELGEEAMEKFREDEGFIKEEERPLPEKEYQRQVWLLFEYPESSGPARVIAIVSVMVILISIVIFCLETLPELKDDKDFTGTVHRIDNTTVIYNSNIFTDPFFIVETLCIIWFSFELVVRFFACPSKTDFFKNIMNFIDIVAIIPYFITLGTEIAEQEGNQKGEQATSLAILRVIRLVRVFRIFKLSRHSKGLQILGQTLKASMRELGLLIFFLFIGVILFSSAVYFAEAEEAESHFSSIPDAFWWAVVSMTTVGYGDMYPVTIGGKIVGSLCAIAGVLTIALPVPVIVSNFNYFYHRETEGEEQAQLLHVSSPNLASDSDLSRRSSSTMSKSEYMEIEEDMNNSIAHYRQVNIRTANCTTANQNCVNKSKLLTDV

H-P[Nle]E[Nle]RC(1)SASVEC(2)KQKC(3)LAAIGSIFGKC(1)[Nle]NKKC(2)KC(3)YPR-OH [Peptide 100]
IC50 (Kv1.1; QPatch, CHO cells stably expressing human Kv1.1, read-out: Potency IC50, Kv1.1): > 3000 nM
Selectivity Kv1.1/Kv1.3 (Kv1.1; ratio of IC50 Kv1.1/Kv1.3): >9100
Mean ear thickness of KLH-induced ear ([1]; 1 nmol/kg s.c., challenge day 11, 24 hrs post-challenge, vehicle 0.902, p=0.0872): 0.872±0.037 mm
Mean ear thickness of KLH-induced ear ([1]; 1 nmol/kg s.c., challenge day 11, 48 hrs post-challenge, vehicle 0.876, p=0.1953): 0.854±0.038 mm
Mean ear thickness of KLH-induced ear ([1]; 3 nmol/kg s.c., challenge day 11, 24 hrs post-challenge, vehicle 0.902, p<0.0001): 0.814±0.014 mm
Mean ear thickness of KLH-induced ear ([1]; 3 nmol/kg s.c., challenge day 11, 48 hrs post-challenge, vehicle 0.876, p=0.0001): 0.814±0.019 mm
Mean ear thickness of KLH-induced ear ([1]; 10 nmol/kg s.c., challenge day 11, 24 hrs post-challenge, vehicle 0.902, p<0.0001): 0.796±0.043 mm
Mean ear thickness of KLH-induced ear ([1]; 10 nmol/kg s.c., challenge day 11, 48 hrs post-challenge, vehicle 0.876, p=0.0001): 0.794±0.036 mm
Mean ear thickness of KLH-induced ear ([1]; 30 nmol/kg s.c., challenge day 11, 24 hrs post-challenge, vehicle 0.902, p<0.0001): 0.754±0.017 mm
Mean ear thickness of KLH-induced ear ([1]; 30 nmol/kg s.c., challenge day 11, 48 hrs post-challenge, vehicle 0.876, p<0.0001): 0.736±0.03 mm
Mean ear thickness of KLH-induced ear ([1]; 100 nmol/kg s.c., challenge day 11, 24 hrs post-challenge, vehicle 0.902, p<0.0001): 0.751±0.009 mm
Mean ear thickness of KLH-induced ear ([1]; 100 nmol/kg s.c., challenge day 11, 48 hrs post-challenge, vehicle 0.876, p<0.0001): 0.731±0.016 mm
Mean ear thickness of KLH-induced ear ([1]; 24 hrs post-challenge, day 2 post-treatment, 100 nmol/kg SC): 0.736 mm
Mean ear thickness of KLH-induced ear ([1]; 24 hrs post-challenge, day 6 post-treatment, 1 nmol/kg SC): 0.872 mm
Mean ear thickness of KLH-induced ear ([1]; 24 hrs post-challenge, day 6 post-treatment, 3 nmol/kg SC): 0.814 mm
Mean ear thickness of KLH-induced ear ([1]; 24 hrs post-challenge, day 6 post-treatment, 10 nmol/kg SC): 0.796 mm
Mean ear thickness of KLH-induced ear ([1]; 24 hrs post-challenge, day 6 post-treatment, 30 nmol/kg SC): 0.754 mm
Mean ear thickness of KLH-induced ear ([1]; 24 hrs post-challenge, day 6 post-treatment, 100 nmol/kg SC): 0.751 mm
Mean ear thickness of KLH-induced ear ([1]; 48 hrs post-challenge, day 3 post-treatment, 100 nmol/kg SC): 0.671 mm
Mean ear thickness of KLH-induced ear ([1]; 48 hrs post-challenge, day 7 post-treatment, 1 nmol/kg SC): 0.854 mm
Mean ear thickness of KLH-induced ear ([1]; 48 hrs post-challenge, day 7 post-treatment, 3 nmol/kg SC): 0.814 mm
Mean ear thickness of KLH-induced ear ([1]; 48 hrs post-challenge, day 7 post-treatment, 10 nmol/kg SC): 0.794 mm
Mean ear thickness of KLH-induced ear ([1]; 48 hrs post-challenge, day 7 post-treatment, 30 nmol/kg SC): 0.736 mm
Mean ear thickness of KLH-induced ear ([1]; 48 hrs post-challenge, day 7 post-treatment, 100 nmol/kg SC): 0.731 mm
minimal dose to obtain effect ([1]; KLH-induced DTH model, s.c.): 3 nmol/kg
Mean ear thickness of KLH-induced ear ([1]; s.c. day 6, dose not given, challenge day 7, 24 hrs post-challenge, vehicle 0.849, p<0.0001): 0.736±0.026 mm
Mean ear thickness of KLH-induced ear ([1]; s.c. day 6, dose not given, challenge day 7, 48 hrs post-challenge, vehicle 0.777, p<0.0001): 0.671±0.022 mm
IC50 (Kv1.3): 0.33 nM
effect on KLH-induced ear swelling / inflammation ([2]; 300 nmol/kg on day 6, challenges on days 7, 9 and 11, in words): reduced KLH-induced ear swelling after challenges on days 7, 9 and 11
Mean ear thickness of KLH-induced ear ([2]; 300 nmol/kg s.c. day 6, challenge day 7, 24 hrs post-challenge (2 days post-treatment), vehicle 0.796, p<0.0001): 0.676±0.017 mm
Mean ear thickness of KLH-induced ear ([2]; 300 nmol/kg s.c. day 6, challenge day 7, 48 hrs post-challenge (3 days post-treatment), vehicle 0.733, p<0.0001): 0.623±0.015 mm
Mean ear thickness of KLH-induced ear ([2]; 300 nmol/kg s.c. day 6, challenge day 9, 24 hrs post-challenge (4 days post-treatment), vehicle 0.761, p=0.0011): 0.689±0.031 mm
Mean ear thickness of KLH-induced ear ([2]; 300 nmol/kg s.c. day 6, challenge day 9, 48 hrs post-challenge (5 days post-treatment), vehicle 0.729, p=0.0002): 0.659±0.034 mm
Mean ear thickness of KLH-induced ear ([2]; 300 nmol/kg s.c. day 6, challenge day 11, 24 hrs post-challenge (6 days post-treatment), vehicle 0.784, p<0.0001): 0.681±0.023 mm
Mean ear thickness of KLH-induced ear ([2]; 300 nmol/kg s.c. day 6, challenge day 11, 48 hrs post-challenge (7 days post-treatment), vehicle 0.746, p<0.0001): 0.653±0.013 mm
Mean ear thickness of KLH-induced ear ([2]; 300 nmol/kg s.c. day 6, challenge day 13, 24 hrs post-challenge (8 days post-treatment), vehicle 0.767, p=0.0696, not significant): 0.729±0.038 mm
Mean ear thickness of KLH-induced ear ([2]; 300 nmol/kg s.c. day 6, challenge day 13, 48 hrs post-challenge (9 days post-treatment), vehicle 0.720, p=0.2256, not significant): 0.699±0.028 mm
Mean ear thickness of KLH-induced ear ([2]; measured 48 hrs post-challenge, day 3 post-treatment, 300 nmol/kg SC): 0.623 mm
Mean ear thickness of KLH-induced ear ([2]; measured 48 hrs post-challenge, day 5 post-treatment, 300 nmol/kg SC): 0.659 mm
Mean ear thickness of KLH-induced ear ([2]; measured 48 hrs post-challenge, day 7 post-treatment, 300 nmol/kg SC): 0.653 mm
Mean ear thickness of KLH-induced ear ([2]; measured 48 hrs post-challenge, day 9 post-treatment, 300 nmol/kg SC): 0.699 mm
IC50 (Kv1.6; QPatch, CHO cells stably expressing human Kv1.6, read-out: Potency IC50, Kv1.6): > 3000 nM
Selectivity Kv1.6/Kv1.3 (Kv1.6; ratio of IC50 Kv1.6/Kv1.3): >9100
